Experimental data: PubChem BioAssay AID248 (DTP/NCI, 2004)
Values joined by “and” are separate entries in the source; they are usually repeats but may differ in a detail not shown here. Equal values may be shown once. Inconclusive results and toxic doses are left out. No stated cut-off is given here; in the data, active means T/C of 150% or more; inactive means T/C below 125%.

Test system: L1210 leukemia ip in BDF1 mice, survival T/C
Assay: NCI In Vivo Anticancer Drug Screen. Data for tumor model L1210 Leukemia (intraperitoneal) in B6D2F1 (BDF1) mice
Conditions: endpoint: mean survival time, higher = longer survival
Method in brief: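 In this screen, tumor-bearing mice given compound are compared to those given vehicle, and their survival values are reported as a treated-to-control quotient.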

[1] = dose: 100.0 mg/kg/injection, schedule: Q04DX002 (ip), vehicle: saline
[2] = dose: 200.0 mg/kg/injection, schedule: Q04DX002 (ip), vehicle: saline
[3] = dose: 400.0 mg/kg/injection, schedule: Q04DX002 (ip), vehicle: saline
[4] = dose: 100.0 mg/kg/injection, schedule: Q01DX001 (ip), vehicle: carboxymethylcellulose (CMC)
[5] = dose: 200.0 mg/kg/injection, schedule: Q01DX001 (ip), vehicle: carboxymethylcellulose (CMC)
[6] = dose: 400.0 mg/kg/injection, schedule: Q01DX001 (ip), vehicle: carboxymethylcellulose (CMC)
[7] = dose: 100.0 mg/kg/injection, schedule: Q01DX009 (ip), vehicle: Klucel (hydroxypropylcellulose) (HPC)
[8] = dose: 100.0 mg/kg/injection, schedule: Q04DX003 (ip), vehicle: Klucel (hydroxypropylcellulose) (HPC)
[9] = dose: 200.0 mg/kg/injection, schedule: Q01DX009 (ip), vehicle: Klucel (hydroxypropylcellulose) (HPC)
[10] = dose: 200.0 mg/kg/injection, schedule: Q04DX003 (ip), vehicle: Klucel (hydroxypropylcellulose) (HPC)
[11] = dose: 400.0 mg/kg/injection, schedule: Q01DX009 (ip), vehicle: Klucel (hydroxypropylcellulose) (HPC)
[12] = dose: 400.0 mg/kg/injection, schedule: Q04DX003 (ip), vehicle: Klucel (hydroxypropylcellulose) (HPC)
[13] = dose: 100.0 mg/kg/injection, schedule: Q01DX001 (ip), vehicle: saline
[14] = dose: 200.0 mg/kg/injection, schedule: Q01DX001 (ip), vehicle: saline
[15] = dose: 400.0 mg/kg/injection, schedule: Q01DX001 (ip), vehicle: saline
[16] = dose: 50.0 mg/kg/injection, schedule: Q01DX009 (ip), vehicle: Klucel (hydroxypropylcellulose) (HPC)

Measured: T/C

ClC12CCC(CC1)C2
inactive: [1] 96 % of control | [2] 104 % of control | [3] 93 % of control

COc1ccc(C(=O)/C=C/c2ccc(OCc3ccccc3)c(OC)c2)cc1OC
inactive: dose: 100.0 mg/kg/injection, schedule: Q04DX003 (ip), vehicle: water 93 % of control | dose: 200.0 mg/kg/injection, schedule: Q04DX003 (ip), vehicle: water 93 % of control | dose: 400.0 mg/kg/injection, schedule: Q04DX003 (ip), vehicle: water 91 % of control

CCC1CC(C)C(=O)NC1=O (centres undefined)
inactive: dose: 12.5 mg/kg/injection, schedule: Q01DX009 (ip), vehicle: saline 95 % of control | dose: 12.5 mg/kg/injection, schedule: Q04DX003 (ip), vehicle: saline 91 % of control | dose: 25.0 mg/kg/injection, schedule: Q01DX009 (ip), vehicle: saline 100 % of control | dose: 25.0 mg/kg/injection, schedule: Q04DX003 (ip), vehicle: saline 110 % of control | dose: 50.0 mg/kg/injection, schedule: Q01DX009 (ip), vehicle: saline 95 % of control | dose: 50.0 mg/kg/injection, schedule: Q04DX003 (ip), vehicle: saline 96 % of control

Nc1nc(Cl)c(N=Nc2ccccc2)c(=O)[nH]1
inactive: dose: 25.0 mg/kg/injection, schedule: Q01DX009 (ip), vehicle: carboxymethylcellulose (CMC) 97 % of control and 98 % of control | dose: 50.0 mg/kg/injection, schedule: Q01DX009 (ip), vehicle: carboxymethylcellulose (CMC) 93 % of control and 90 % of control | [4] 95 % of control and 102 % of control | dose: 100.0 mg/kg/injection, schedule: Q04DX002 (ip), vehicle: carboxymethylcellulose (CMC) 97 % of control and 89 % of control | dose: 100.0 mg/kg/injection, schedule: Q04DX003 (ip), vehicle: carboxymethylcellulose (CMC) 100 % of control and 108 % of control | [5] 98 % of control and 109 % of control | dose: 200.0 mg/kg/injection, schedule: Q04DX002 (ip), vehicle: carboxymethylcellulose (CMC) 93 % of control | dose: 200.0 mg/kg/injection, schedule: Q04DX003 (ip), vehicle: carboxymethylcellulose (CMC) 106 % of control and 113 % of control | [6] 95 % of control and 98 % of control | dose: 400.0 mg/kg/injection, schedule: Q04DX002 (ip), vehicle: carboxymethylcellulose (CMC) 93 % of control and 98 % of control | dose: 400.0 mg/kg/injection, schedule: Q04DX003 (ip), vehicle: carboxymethylcellulose (CMC) 100 % of control and 106 % of control

CN(C)c1ccc2oc(=O)c3ccccc3c2c1
inactive: dose: 50.0 mg/kg/injection, schedule: Q01DX001 (ip), vehicle: carboxymethylcellulose (CMC) 100 % of control | [4] 92 % of control | [5] 100 % of control | [6] 94 % of control

O=[N+]([O-])c1ccc(/C=C/CCOc2ccccc2)cc1
inactive: [7] 98 % of control | [8] 97 % of control | [9] 96 % of control | [10] 105 % of control | [11] 91 % of control | [12] 105 % of control

CCOP(=S)(OCC)Oc1ccc(Sc2ccc(OP(=S)(OCC)OCC)cc2)cc1
inactive: [13] 101 % of control | [14] 101 % of control | [15] 107 % of control

c1ccc(C2(c3ccccc3)c3ccc([nH]3)C(c3ccccc3)(c3ccccc3)c3ccc([nH]3)C(c3ccccc3)(c3ccccc3)c3ccc([nH]3)C(c3ccccc3)(c3ccccc3)c3ccc2[nH]3)cc1
inactive: [13] 97 % of control | [14] 100 % of control | [15] 100 % of control

COc1cc(C(=O)NNS(=O)(=O)c2ccccc2)cc(OCc2ccccc2)c1OC
inactive: [1] 97 % of control | [2] 97 % of control | [3] 95 % of control

CCCSC(=O)N(CC)C(=NCC)c1ccc(NC(=O)c2ccc(C(=O)Nc3ccc(C(=NCC)N(CC)C(=O)SCCC)cc3)cc2)cc1
inactive: dose: 2.25 mg/kg/injection, schedule: Q01DX015 (ip), vehicle: methylcellulose (MC) 104 % of control | dose: 4.5 mg/kg/injection, schedule: Q01DX015 (ip), vehicle: methylcellulose (MC) 100 % of control | dose: 9.0 mg/kg/injection, schedule: Q01DX015 (ip), vehicle: methylcellulose (MC) 100 % of control | dose: 18.0 mg/kg/injection, schedule: Q01DX015 (ip), vehicle: methylcellulose (MC) 102 % of control | dose: 75.0 mg/kg/injection, schedule: Q01DX015 (ip), vehicle: methylcellulose (MC) 90 % of control | dose: 150.0 mg/kg/injection, schedule: Q01DX015 (ip), vehicle: methylcellulose (MC) 86 % of control

O=C1c2ccccc2C(=O)N1CNc1ccccc1
inactive: [7] 103 % of control | [8] 104 % of control | [9] 98 % of control | [10] 102 % of control | [11] 93 % of control | [12] 94 % of control

CCCCNC(=O)OC
inactive: [16] 94 % of control | [7] 97 % of control | [8] 98 % of control | [9] 102 % of control | [10] 91 % of control

CCC(CC)C(=O)NC(N)=O
inactive: [8] 98 % of control | [10] 103 % of control | [12] 98 % of control

S=C=NCc1cccc2ccccc12
inactive: dose: 2.5 mg/kg/injection, schedule: Q01DX009 (ip), vehicle: carboxymethylcellulose (CMC) 90 % of control | dose: 5.0 mg/kg/injection, schedule: Q01DX009 (ip), vehicle: carboxymethylcellulose (CMC) 94 % of control | dose: 5.0 mg/kg/injection, schedule: Q04DX003 (ip), vehicle: carboxymethylcellulose (CMC) 101 % of control | dose: 10.0 mg/kg/injection, schedule: Q01DX001 (ip), vehicle: carboxymethylcellulose (CMC) 93 % of control | dose: 10.0 mg/kg/injection, schedule: Q01DX009 (ip), vehicle: carboxymethylcellulose (CMC) 105 % of control | dose: 10.0 mg/kg/injection, schedule: Q04DX003 (ip), vehicle: carboxymethylcellulose (CMC) 97 % of control | dose: 20.0 mg/kg/injection, schedule: Q01DX001 (ip), vehicle: carboxymethylcellulose (CMC) 87 % of control | dose: 20.0 mg/kg/injection, schedule: Q04DX003 (ip), vehicle: carboxymethylcellulose (CMC) 97 % of control

Nc1nccc2c1ncn2C1OC(CO)C(O)C1O (centres undefined)
inactive: dose: 100.0 mg/kg/injection, schedule: Q01DX005 (ip), vehicle: saline 108 % of control | dose: 200.0 mg/kg/injection, schedule: Q01DX005 (ip), vehicle: saline 109 % of control

CCCCC(=O)N/N=C\c1ccc(C(=O)O)cc1
inactive: [4] 96 % of control | [5] 100 % of control | [6] 110 % of control

Oc1ccc2ccc(O)c(C(NC(O)c3ccccc3)c3ccccc3)c2c1C(NC(O)c1ccccc1)c1ccccc1 (centres undefined)
inactive: dose: 10.0 mg/kg/injection, schedule: Q01DX001 (ip), vehicle: saline 96 % of control | dose: 20.0 mg/kg/injection, schedule: Q01DX001 (ip), vehicle: saline 96 % of control | dose: 40.0 mg/kg/injection, schedule: Q01DX001 (ip), vehicle: saline 93 % of control

O=C1COc2cc(O)c(O)cc21
inactive: [13] 104 % of control | [14] 103 % of control | [15] 104 % of control

Cc1ccc(NS(=O)(=O)c2ccc([N+](=O)[O-])cc2)c(C)c1
inactive: dose: 100.0 mg/kg/injection, schedule: Q01DX009 (ip), vehicle: saline with Tween-80 98 % of control | dose: 100.0 mg/kg/injection, schedule: Q04DX003 (ip), vehicle: saline with Tween-80 88 % of control | dose: 200.0 mg/kg/injection, schedule: Q01DX009 (ip), vehicle: saline with Tween-80 101 % of control | dose: 200.0 mg/kg/injection, schedule: Q04DX003 (ip), vehicle: saline with Tween-80 89 % of control | dose: 400.0 mg/kg/injection, schedule: Q01DX009 (ip), vehicle: saline with Tween-80 98 % of control | dose: 400.0 mg/kg/injection, schedule: Q04DX003 (ip), vehicle: saline with Tween-80 86 % of control

CC1(C)OC(O)C(C(O)C(O)C(O)C(=O)O)O1 (centres undefined)
inactive: [1] 98 % of control | [2] 109 % of control

O=c1cc(-c2ccccc2)oc(-c2ccc(Cl)cc2)c1
inactive: dose: 25.0 mg/kg/injection, schedule: Q01DX009 (ip), vehicle: Klucel (hydroxypropylcellulose) (HPC) 98 % of control | [16] 98 % of control | [7] 100 % of control | [8] 97 % of control | [10] 90 % of control | [12] 100 % of control

CC(=O)Nc1ccc2c(c1)C(C)c1ccccc1-2 (centres undefined)
inactive: [4] 89 % of control | [5] 95 % of control | [6] 93 % of control

[O-]/[N+](=C\C=C\c1ccccc1)c1ccccc1
inactive: [7] 100 % of control | [8] 103 % of control | [9] 90 % of control | [10] 95 % of control | [11] 89 % of control | [12] 86 % of control
